The nature of series [1]: dynamic light scattering, size and zeta potential of peptide/siRNA complexes. Format: physicochemical. Here is the method: Dynamic Light Scattering and Transmission Electron Microscopy. DIV3 (X)-siNT complexes were prepared at 2 mg/mL in RNase-free water. Hydrodynamic size and surface charge of the peptide/siRNA complexes were determined using a Nano ZS Zetasizer (Malvern Pananalytical, Malvern, UK). All data were recorded using Malvern's Zetasizer software.
To determine nanoparticle size and zeta potential, peptides resuspended in RNase-free water (10 μM) were thawed and kept on ice prior to complexation with 10 μM of siNT in RNase-free water and incubated for 20 minutes at room temperature to form DIV3W-siNT and LHRH-DIV3W-siNT complexes. Peptide complexes were prepared at 2 mg/mL in RNase-free water. Hydrodynamic size and surface charge analysis was conducted using a Malvern Nano ZS Zetasizer (Malvern Panalytical, Malvern, UK). All data was analyzed using Malvern's Zetasizer software.

Series [2] has as its system CSNK2A1 mRNA. As to the kind of experiment: qPCR of CSNK2A1 mRNA in CAOV3 cells. The settings on record: CAOV3, 48 hours, 80:1. In kind it is cell-based. Here is the method:
(§1) qRT-PCR. Cells were seeded at 50,000 cells per well and treated with siRNA targeting CSNK2A1 (siCSNK2A1 #s3638, Thermo Fisher Scientific) at increasing N:P ratios and incubated for a total of 48 hours in McCoys 5A/DMEM-10% FBS. Treated cells were washed with 1×PBS at 24 hours and fresh media was added. RNAisolation was completed using a Qiagen Mini-RNeasy Kit (Qiagen, Hilden, Germany) according to the manufacturer's protocol. RNA isolation quality and quantity were measured through the Gen5 protocol using a Take3 plate (BioTek). RNA was reverse-transcribed using the QuantiTect Reverse Transcription kit (Qiagen). Quantitative real-time PCR was completed with a QuantStudio 3 qPCR system (Applied Biosystems) using Applied Biosystems TaqMan FAST Master Mix (Thermo Fisher) and CSNK2A1 (ID #Hs00751002_s1) and 18S (ID #Hs99999901_s1) predesigned TaqMan probes, according to the manufacturer's protocol.
Background: In qPCR the cycle at which signal appears reflects the starting amount.

Another series concerns OVCAR3 cells. As to the kind of experiment: cellular uptake of labeled siRNA by flow cytometry. Format: cell-based. The conditions noted are these: for uptake efficiency: OVCAR3, siNT-DY547, 4 hours. Here is the method: Cellular Uptake. OVCAR3 and CAOV3 cells were prepared at 50,000 cells per well in a 24-well plate. […] Post-incubation, media was aspirated and cells were washed with 1× PBS. To counterstain the nuclei, SuperSignal NucBlue Hoechst stain (Thermo Fisher, Waltham, MA) was added to the cells for 30 minutes, followed by an additional 1×PBS wash. Subsequent imaging was performed using an EVOS FL Microscope (Thermo Fisher) at 10× magnification. For flow cytometric analysis, cells were detached, resuspended in 1× PBS, and analyzed using an Attune NXT Acoustic flow cytometer (Invitrogen, Carlsbad, CA) with the blue laser line and BL2 (574/26 nm) channel.
Cellular Uptake and Targeting Specificity. Observation of cell uptake was performed by seeding OVCAR3 and CAOV3 cells at a density of 50,000 cells per well in a 24-well plate. LHRH and LHRH-DIV3W peptides were complexed with […] as previously described and delivered to cells at 20:1 to 80:1 N:P ratios. Each cell line was incubated with tandem peptide complexes for both 4- and 24-hour treatment periods. Following incubation, cell media was removed, and cells were washed with 1× PBS prior to the addition of 500 μL of 1×PBS and SuperSignal NucBlue Hoescht 33342 nuclear stain (Thermo Fisher, Waltham, MA). Cellular imaging was completed using an EVOS FL Microscope (Thermo Fisher) at 10×, 20×, and 40× magnification. Flow cytometry was completed after cell imaging and cells were trypsinized, resuspended in 1×PBS, and analyzed with an Attune NXT Acoustic Flow Cytometer (Invitrogen) with the red laser line and RL2 […] channel.
On the technique in general: Flow cytometry measures light scatter and fluorescence of single cells or particles in a stream.

Series [3] deals with MCF10a breast epithelial cells. As to the kind of experiment: MTS cell viability assay, healthy cells. Format: cell-based. The conditions noted are these: 48 h (FIG. 25: DIV3W-siNT complexes). (In general: Tetrazolium assays rely on reduction of a dye to a coloured formazan, in cell work by metabolically active cells.)
For series [4], the system named is CSNK2A1 mRNA. As to the kind of experiment: qPCR of CSNK2A1 mRNA in OVCAR3 cells. Format: cell-based. The settings on record: maximum; ratio and cell line not stated at the place. Here is the method:
as §1
Gene and Protein Knockdown. Bioactivity of siRNAs was determined via qPCR and western blot analysis. OVCAR3 or CAOV3 cells were seeded at 50,000 cells per well as previously described and treated with siRNA targeting CSNK2A1 and siNT at N:P ratios 30:1, 40:1, 50:1, 60:1, and 70:1. LHRH-DIV3W peptide complexed with either siNT or siCSNK2A1 was incubated for a total of 48 hours in RPMI 1640/DMEM-10% FBS, with one media exchange occurring after the 24-hour timepoint. Treated cells were washed with 1×PBS at 24 hours and fresh media was added. RNA isolation was completed using a Qiagen Mini-RNeasy Kit (Qiagen, Hilden, Germany) according to the manufacturer's protocol. RNA isolation quality and quantity was measured through the Gen5 protocol using a Take3 plate (BioTek). RNA was reverse transcribed using the QuantiTect Reverse Transcription kit (Qiagen) according to the manufacturer's protocol. Quantitative real-time PCR was completed with a QuantStudio 3 qPCR system (Applied Biosystems, Waltham, MA) using Applied Biosystems TaqMan FAST Master Mix (Thermo Fisher) and CSNK2A1 (ID #Hs00751002_s1) and 18S (ID #Hs99999901_s1) predesigned TaqMan probes according to the manufacturer's protocol.

For another series, the system named is RNase A. As to the kind of experiment: gel assay of siRNA protection from RNase A degradation. The settings on record: 1 hour, several N:P ratios. In kind it is in vitro ADME. Here is the method: Gel Shift Assays. DIVA3, DIV3H, and DIV3W (all three denoted as DIV3 (X)) peptides suspended in RNase-free water (10 μM), were thawed, and kept on ice prior to complexation with 10 μM of negative control siGENOME non-targeting siRNA #5 (siNT, GE Healthcare Dharmacon, Lafayette, CO) in RNase-free water and incubated for 20 minutes at room temperature to allow the formation of DIV3 (X)-siNT complexes. Various molar ratios of peptides were complexed with siNT at increasing N:P molar ratios to determine the minimum molar ratio necessary to completely complex free siRNAs using an electrophoretic mobility shift assay. To determine the ability of each peptide variant to protect siRNAs from degradation, DIV3 (X)-siNT complexes or siNT alone was left untreated or incubated with either 50% v/v FBS or 5 μg/mL RNase A at 37° C. for one hour. Next, complexes were dissociated using 6% sodium dodecyl sulfate (SDS). Samples were added to a 2% agarose gel and run at 100 V. Gels were stained with ethidium bromide, destained with Milli-Q water, and imaged using a ChemiDoc XRS imager (Bio-Rad, Hercules, CA).
Characterization of Nanoparticle Size and Stability. To determine the minimum molar ratio necessary to completely complex free siRNAs, increasing N:P molar ratios of LHRH, DIV3W, and LHRH-DIV3W peptide were complexed with siRNAs and electrophoresed using a electrophoretic mobility shift assay. Molar ratios, shown as N:P, are representations of the molar amine peptide content in relation to 1 mole of phosphate group siRNA content. To determine the ability of the peptides to protect siRNAs from serum- or RNase-mediated degradation, LHRH and LHRH-DIV3W complexes were formed in RNase-free water with siNT at increasing N:P molar ratios and incubated at 37° C., 5% CO2, 50% v/v FBS, 5 μg/mL RNase A, or 50% v/v RNase free water for 1 hour. Peptide/siRNA complexes were dissociated using 6% sodium dodecyl sulfate (SDS) prior to electrophoresis in a 2% agarose gel run at 100 V. Gels were stained with ethidium bromide, washed with Milli-Q water, and imaged with a BioRad ChemiDoc XRS imager (BioRad, Hercules, CA).
Peptides VA-LD and GF-LD, comprising the cleavable linker VA or GLFG, respectively, between the LHRH target sequence and the DIV3W peptide, and non targeting siRNA were electrostatically complexed at increasing N:P ratios then subjected to agarose gel electrophoresis to determine optimal siRNA binding for each peptide. […] Peptide-siRNA nanocomplexes at increasing N:P ratios for peptides for VA-LD (FIG. 30A) and GF-LD (FIG. 30C) were incubated in either Rnase A enzyme or in 50% fetal bovine serum (FBS) for 1 h, dissociated using SDS then subjected to gel electrophoresis to visualize siRNA bands. Gels showing increasing N:P ratios of peptide:siRNA for VA-LD (FIG. 30B) and GF-LD (FIG. 30D) from 20:1 to 80:1 N:P; white bands are indicative of intact siRNA

We go through 1 molecule from patent publication US20250177548A1, “FUSOGENIC PEPTIDE COMPOSITIONS AND METHODS OF CARGO DELIVERY” (CLEMSON UNIVERSITY, priority 2022, published 2025).

Non-standard residues stand in square brackets, D forms with d. Residues, ends and D or L forms follow the SMILES beside them.

For the molecule `CC[C@H](C)[C@H](NC(=O)[C@H](CC(=O)O)NC(=O)[C@H](C)NC(=O)[C@@H](NC(=O)[C@@H](NC(=O)[C@H](CC(=O)O)NC(=O)[C@H](Cc1c[nH]c2ccccc12)NC(=O)[C@@H](NC(=O)[C@@H](NC(=O)[C@H](CC(=O)O)NC(=O)[C@H](C)NC(=O)[C@@H](NC(=O)[C@@H](NC(=O)[C@H](CC(=O)O)NC(=O)[C@H](C)NC(=O)[C@H](CCC(=O)O)NC(=O)[C@@H](N)Cc1c[nH]c2ccccc12)[C@@H](C)CC)C(C)C)[C@@H](C)CC)C(C)C)[C@@H](C)CC)C(C)C)C(=O)N[C@H](C(=O)N[C@@H](C)C(=O)NCC(=O)NCC(=O)NCC(=O)N[C@H](CCCNC(=N)N)C(=O)N[C@H](CCCNC(=N)N)C(=O)N[C@H](CCCNC(=N)N)C(=O)N[C@H](CCCNC(=N)N)C(=O)N[C@H](CCCNC(=N)N)C(=O)N[C@H](CCCNC(=N)N)C(=O)N[C@H](CCCNC(=N)N)C(=O)N[C@H](CCCNC(=N)N)C(=O)N[C@H](CCCNC(=N)N)C(=O)O)C(C)C` [DIV3W] (H-WEADIVADIVWDIVADIVAGGG[dR][dR][dR][dR][dR][dR][dR][dR][dR]-OH), the hydrodynamic diameter result in series [1] (DIV3 (X) peptide/siRNA complex at 60:1 ratio) is “around 100 nm”. Further, in series [1] (DIV3 (X) peptide/siRNA complexes), the zeta potential was approximately 30 mV. The “CSNK2A1 mRNA knockdown, maximum” value with CSNK2A1 mRNA [2] came to 80%. For the same molecule, the siRNA internalization efficiency result with OVCAR3 cells (OVCAR3, at each N:P ratio) was “approximately 65%”. Further, the uptake efficiency was determined as 70.0% with OVCAR3 cells (40:1), 69.7% in the series on OVCAR3 cells (60:1) and 66.6% in the series on OVCAR3 cells (80:1). Moreover, the “cytotoxicity in healthy cells” value in series [3] was “no cytotoxic effects were observed”. The mRNA reduction entry with CSNK2A1 mRNA [4] is given as “up to 94%”. Further, the “intact siRNA after incubation with RNase A” value in the series on RNase A was “Minimal degradation”.
